Measured values from patent US4199579A, “Carbamates of 2-haloergolines and 2-haloergolenes and process for the preparation thereof” (priority 1975, dated 1980).
In brackets after ≈: the same amount, converted by molar mass. Counter-ions that a name gives are not always drawn. Like-named read-outs stand apart in the source and are kept apart here.

What was measured:
[1] = system: alpha-adrenergic receptors; assay: Antiadrenalic (antiadrenergic) activity in vitro (a): antagonism of the spasmogenic effect of adrenaline on the seminal vesicle; type: cell-based, guinea pig
From the text: More particularly the novel compounds display a vasodilatory activity on the peripheral circulatory system, an hypotensive activity and a spasmolytic effect on the gastrointestinal smooth muscles or a blocking activity towards the alpha-adrenergic receptors, both in "vitro" and in "vivo".
(a) J. Brugger, Helv. Physiol. Pharmacol. Acta 3, 117 (1945)
The product is antagonizing the spasmogenic effect of the adrenaline on the seminal vesicle of guinea pig at concentrations of between 0.1 and 10 pg/ml, as well as the vaso- constricting effect of the noradrenaline on the isolated and perfused caudal arteria of rat, at dosages of between 1 and 10 μg total. Furthermore it antagonizes the contracturing effect of adrenaline and noradrenaline on the "vas deferens" of guinea pig and rat, at concentrations of 0.1 to 10 ng/ml.

[2] = system: alpha-adrenergic receptors; assay: Antiadrenalic activity in vivo (b): protection of rats from the lethal effect of adrenaline; set-up: species or system rat; settings: for Antiadrenalic activity (b) vivo ED50: Table 2; for ED50 protecting rats from the lethal effect of adrenaline / activity higher than that of nicergoline: rat
[3] = system: alpha-adrenergic receptors; assay: Protection of mice from the lethal effect of adrenaline; type: in vivo; settings: mouse
[4] = system: isolated ileum of guinea pig; assay: AntiBaCl2 activity in vitro (c): antagonism of the spasmogenic action of barium chloride on the isolated ileum; type: cell-based; settings: Cavia porcellus, read-out: AntiBaCl2 (c) vitro EC50
Experimental: (c) Magnus, Pflugers Arch.Ges.Physiol. 102, 123 (1904)
The substance antagonizes the spasmogenic action of the barium chloride on the isolated ileum of guinea pig at dosages of between 1 and 5 μg/ml. […] On the isolated caudal arteria of rat, the compound II inhibits the vaso-constricting effect as caused by the perfusion with hyperpotassium Ringer's solution.

[5] = Acute toxicity in mice; type: in vivo, mouse; settings: mouse, in vivo, mouse
From the text: (§1) |Toxicity LD50 mice orally

[6] = system: anaesthetized cat; assay: Arterial pressure in the anaesthetized cat; type: in vivo; settings: Felis catus, iv, e.v., read-out: dosage from which arterial pressure is reduced
Experimental: (§2) In the anaesthetized cat and rat, the compound causes the arterial pressure to be reduced, starting from dosages of 50 and 30 μg/kg e.v. respectively. In the "pithed" rat the compound, when intravenously administered, antagonizes the hypertensive effect of the adrenaline (ED-50 46 mg/kg).

[7] = system: anaesthetized rat; assay: Arterial pressure in the anaesthetized rat; type: in vivo; settings: iv, e.v., read-out: dosage from which arterial pressure is reduced
Experimental: as §2

[8] = system: "pithed" rat; assay: Antagonism of the hypertensive effect of adrenaline in the pithed rat; type: in vivo; settings: iv, intravenously, read-out: ED-50 antagonizing the hypertensive effect of adrenaline
Experimental: as §2

[9] = system: acetylcholine; assay: Anti-acetylcholinic activity in vitro; type: cell-based; settings: ratio to alpha-blocking concentration
[10] = system: histamine; assay: Anti-histaminic activity in vitro; type: cell-based; settings: ratio to alpha-blocking concentration
[11] = system: serotonin; assay: Anti-serotoninic activity in vitro; type: cell-based; settings: ratio to alpha-blocking concentration
[12] = system: Beagle dogs; assay: 7-month oral administration to Beagle dogs; type: in vivo, dog; settings: 7 months, about 8 mg/kg per oral route
[13] = system: central nervous system (CNS); assay: CNS behaviour tests (swimming of the rat, reserpine ptosis, tetrabenazine catatonia, motility and exploration, behaviour); type: in vivo, rat; mouse; rabbit; dog
From the text: The compound belongs to the class of the ergolene derivatives in which substances are found which cause stimulating effects on the central nervous system (CNS); several behaviour tests have been carried out on animals, in order to assess a possible exciting and hallucinogen action.

[14] = system: mice; assay: Acute toxicity in mice; type: in vivo, mouse; settings: acute toxicity
From the text: as §1

[15] = system: ptosis from reserpine; assay: Antagonism to ptosis from reserpine; type: in vivo; settings: po, read-out: Antagonism to ptosis from reserpine ED100
[16] = system: Anorexia; assay: Anorexia; type: in vivo; settings: po; orally
[17] = system: Anti-Parkinson activity; assay: Anti-Parkinson activity; type: in vivo; settings: po; orally
[18] = system: Antidepressant activity; assay: Antidepressant activity; type: in vivo; settings: route not given
From the text: (§3) Coming now to examining the anti-asthmatic pharmaceutical compositions it has been ascertained that the compound described as D-2-bromo-6-methyl-8beta-(morpholinocarbolynoxymethyl)-ergoline, corresponding to the formula (4) is endowed with quite special [drawing 81] which render it particularly recommendable for the therapy of asthma. The compound of the formula (4) has the empirical formula C21 H26 N3 O3 Br and a mol. wt. of 448.38. It gives, with mineral and organic acid of nontoxic and pharmacologically acceptable nature, a number of salt. These are soluble in water as well as in the physiological solutions. Such are for example the maleate C25 H30 N3 O7 Br, m.p. 213° C.-216° C., or the methanesulfonate C22 H30 N3 O6 BrS, m.p. 265° C.-266° C. and can be prepared according to the conventional methods by treating the compound (4) with the equivalent quantities of the acid in an aqueous medium or in appropriate organic solvents and their mixtures such as the alcohols, the ethers, the lower aliphatic ketones and others, taken individually or in appropriate mixtures with each other as will be detailed in the Examples hereinafter. The pharmacological activity of the compound of formula (4) is unfolded in appropriate assays, carried out on the test animals and is especially conspicuous in the following test runs: […]

[19] = molecular target: alpha-adrenergic receptors; settings: in vitro; comparison compound, reference (d) or (e); cited from earlier work
[20] = system: alpha-adrenergic receptors; settings: e.v.; comparison compound, reference (e); cited from earlier work
[21] = system: Myorelaxing activity; assay: Myorelaxing activity; type: in vivo; settings: route not given
From the text: as §3

[22] = iv, e.v., Table 2, read-out: DL50 e.v. in the mouse

Compound | Antiadrenalic activity (a) vitro EC50 [1] | Antiadrenalic activity (b) vivo ED50 ([2]; e.v.) | EC50 [4] | LD50 [5, 22] | also measured
CN1C[C@H](COC(=O)N2CCCCCC2)C[C@@H]2c3cccc4[nH]c(Br)c(c34)C[C@H]21 [Example 2, D-2-bromo-6-methyl-8beta-(perhydroazepinylcarbonyloxymethyl)-ergoline] | 0.0017 ng/mL | 0.008 mg/kg | 3.1 µg/mL (≈ 6.73 µM) | 39.4 mg/kg | ED50 protecting rats from the lethal effect of adrenaline ([2]; e.v.): 0.008 mg/kg; activity higher than that of nicergoline ([2]; intravenously): 2.5 times; activity higher than that of nicergoline ([2]; orally): 24 times; ED50 protecting rats from the lethal effect of adrenaline ([2]; per os): 0.37 mg/kg; ED50 protecting mice from the lethal effect of adrenaline ([3]; e.v.): 0.051 mg/kg; ED50 protecting mice from the lethal effect of adrenaline ([3]; per os): 0.61 mg/kg; minimal effective dose [6]: ≥ 0.05 mg/kg; minimal effective dose [7]: ≥ 0.03 mg/kg; ED50 [8]: 0.046 mg/kg; anti-acetylcholinic activity: concentration higher than that showing the alpha-blocking effect [9]: 4500 times; anti-histaminic activity: concentration higher than that showing the alpha-blocking effect [10]: 800 times; anti-serotoninic activity: concentration higher than that showing the alpha-blocking effect [11]: 200 times; macroscopic or microscopic alterations of the main organs [12]: did not cause macroscopic or microscopic alterations; modifications of the weight, hematological and hematochemical parameters [12]: did not cause modifications; ECG modifications ([13]; in vivo): ECG modifications of sedative type were always detected; exciting property in behaviour tests ([13]; rat, mice, rabbit, dog): no evidence were found of any exciting property
CN(C)C(=O)OC[C@@H]1C[C@@H]2c3cccc4[nH]c(Br)c(c34)C[C@H]2N(C)C1 [Example 4, D-2-bromo-6-methyl-8beta-(N,N-dimethylcarbamoyloxymethyl)-ergoline] | 10 ng/mL | 0.0112 mg/kg | 10 µg/mL (≈ 24.6 µM) | 7.1 mg/kg | –
CCN(CC)C(=O)OC[C@@H]1C[C@@H]2c3cccc4[nH]c(Br)c(c34)C[C@H]2N(C)C1 [Example 6, D-2-bromo-6-methyl-8beta-(N,N-diethylcarbamoyloxymethyl)-ergoline] | 4.7 ng/mL | 0.0803 mg/kg | 3.8 µg/mL (≈ 8.75 µM) | 13.7 mg/kg | –
CN1C[C@H](COC(=O)N2CCC2)C[C@@H]2c3cccc4[nH]c(Br)c(c34)C[C@H]21 [Example 7, D-2-bromo-6-methyl-8beta-(azetidinylcarbonyloxymethyl)-ergoline] | 5 ng/mL | 0.05 mg/kg | 1.4 µg/mL (≈ 3.35 µM) | 8.7 mg/kg | –
CN1C[C@H](COC(=O)N2CCCC2)C[C@@H]2c3cccc4[nH]c(Br)c(c34)C[C@H]21 [Example 10, D-2-bromo-6-methyl-8beta-(pyrrolydycarbonyloxy-methyl)-ergoline maleate] | 2 ng/mL | 0.0155 mg/kg | 4 µg/mL | 15 mg/kg | –
CN1C[C@H](COC(=O)N2CCCCC2)C[C@@H]2c3cccc4[nH]c(Br)c(c34)C[C@H]21 [Example 12, D-2-bromo-6-methyl-8beta-(piperidinocarbonyloxymethyl)-ergoline] | 3.7 ng/mL | 0.0202 mg/kg | 3.5 µg/mL (≈ 7.84 µM) | 50 mg/kg | –
CN1C[C@H](COC(=O)N2CCCCCC2)C[C@@H]2c3cccc4c3c(c(Br)n4C)C[C@H]21 [Example 14, D-2-bromo-1,6-dimethyl-8beta-(perhydroazepinylcarbonyloxymethyl) ergoline] | – | – | – | – | LD50 ([5]; iv, mice, intravenously, compound (3), read-out: Toxicity LD50 mice, intravenously): 65 to 83 mg/kg; LD50 ([5]; po, mice, orally, compound (3), read-out: Toxicity LD50 mice, orally): 600 mg/kg; acute toxicity in words [14]: well tolerated and poorly toxic; ED100 [15]: 0.01 mg/kg; ED100 [16]: 5 mg/kg; ED100 [17]: 20 mg/kg
CN1CCN(C(=O)OC[C@@H]2C[C@@H]3c4cccc5[nH]c(Br)c(c45)C[C@H]3N(C)C2)CC1 [Example 18, D-2-bromo-6-methyl-8beta-(4,methylpiperazinyl-carbonyloxymethyl)-ergoline] | 50 ng/mL | > 0.32 mg/kg | > 100 µg/mL | 27.3 mg/kg | –
CN1C[C@H](COC(=O)N2CC3CCC(CC3)C2)C[C@@H]2c3cccc4[nH]c(Br)c(c34)C[C@H]21 [Example 20, D-2-bromo-6-methyl-8beta-(3-azabicyclo [3,2, 2]-nonanylcarbonyloxymethyl)-ergoline] | 375 ng/mL | 0.198 mg/kg | > 100 µg/mL | 50 mg/kg | –
N[C@@H](Cc1ccc(O)c(O)c1)C(=O)O [L-dopa, reference compound] | – | – | – | – | ED100 [17]: 300 mg/kg
CC(N)Cc1ccccc1 (centres unmarked) [amphetamine, reference compound] | – | – | – | – | ED100 [16]: 5 mg/kg
CN(C)CCCN1c2ccccc2CCc2ccccc21 [imipramine, reference compound] | – | – | – | – | ED100 ([15]; orally): 25 mg/kg; ED100 [18]: 25 mg/kg
CO[C@]12C[C@@H](COC(=O)c3cncc(Br)c3)CN(C)[C@@H]1Cc1cn(C)c3cccc2c13 [nicergoline, reference compound] | – | – | – | 74.3 mg/kg | EC50 ([4]; in vitro): 2.1 µg/mL (≈ 4.34 µM); Antiadrenalic activity (a) vitro EC50 [19]: 0.007 µg/mL; Antiadrenalic activity (b) vivo ED50 [20]: 0.02 mg/kg
CCC1(c2ccccc2)C(=O)NC(=O)NC1=O [phenobarbital, reference compound] | – | – | – | – | ED100 [21]: 100 mg/kg
dihydroergotoxine | – | – | – | – | Antiadrenalic activity (a) vitro EC50 [19]: 0.078 µg/mL; Antiadrenalic activity (b) vivo ED50 [20]: 0.05 mg/kg
